In the supplement of paper PMC11061612 one finds Bliss excess data, which are given here for seven compounds.

Common to all, as to test: Bliss excess, mean over the matrix (fraction); higher = more synergy
Assay [1] has as its system LC-1-sq (Squamous Cell Lung Carcinoma). In short, it runs like this:
(§1)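 Cell lines grown in DMEM/F12 or RPMI with 10% FBS were plated in 1536-well plates and held 24 hours at 37°C, 5% CO2 before 72 hours of exposure to two-drug dose matrices, with DMSO typically at 0.2%. CellTiter-Glo 2.0 luminescence gave viability, which was converted to inhibition. Vehicle wells were set to 0 and blank wells to 1. Combination Emax is the second-highest inhibition in the matrix, and Bliss excess is the observed combination effect minus the expected EA + EB − EA·EB, where EA and EB are the single-agent effects.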

Assay [2] concerns DU-145 (Prostate Carcinoma). Summed up:
as §1

Assay [3] concerns HCC2998 (Colorectal Carcinoma). In short, it runs like this:
as §1

Assay [4] concerns COLO-668 (Small Cell Lung Carcinoma). In short, it runs like this:
as §1

Assay [5] relates to KGN (Other Solid Carcinomas). In short, it runs like this: as §1
The subject of assay [6] is ALL-SIL (T-Lymphoblastic Leukemia). In short, it runs like this:
as §1

In assay [7] the test system is Mo-T (Other Blood Carcinomas). In short, it runs like this:
as §1

Assay [8] deals with CADO-ES1 (Ewing's Sarcoma). Summed up: as §1
The subject of assay [9] is NCI-H1355 (Lung Adenocarcinoma). Summed up:
as §1

Assay [10] concerns MOG-G-UVW (Low Grade Glioma). Summed up: as §1
The subject of assay [11] is KMRC-1 (Kidney Carcinoma). In short, it runs like this: as §1
For assay [12], the system named is SK-LU-1 (Lung Adenocarcinoma). In short, it runs like this:
as §1

Assay [13] deals with SKN (Other Solid Carcinomas). Summed up: as §1
In assay [14] the test system is HCC1500 (Breast Carcinoma). Summed up: as §1
The test system of assay [15] is NCI-H1092 (Small Cell Lung Carcinoma). Summed up:
as §1

The subject of assay [16] is EFO-21 (Ovarian Carcinoma). In short, it runs like this: as §1
The subject of assay [17] is SW982 (Other Solid Carcinomas). Summed up:
as §1

Assay [18] relates to OACM5-1 (Esophageal Adenocarcinoma). Summed up:
as §1

Assay [19] deals with NCI-H522 (Lung Adenocarcinoma). Summed up: as §1
Assay [20] has as its system ME-180 (Cervical Carcinoma). In short, it runs like this:
as §1

Turning to `COc1nnc2ccc(N3CCC(c4ccc(OCCN5CCN(C)C(=O)[C@H]5C)cc4)CC3)nn12` [AZD5153] + Cn1cnc2c(F)c(Nc3ccc(Br)cc3Cl)c(C(=O)NOCCO)cc21 [Selumetinib] (first compound max 1 µM, 7x7, partner max 10 µM), the Bliss excess is 0.0073 in assay [1]; 0.0192 in assay [2]; 0.0118 in [3]; 0.236 in [4]; -0.002 in assay [5]; -0.0303 in [6]. For the same compound, the Bliss excess is -0.0656 in assay [7]; -0.0469 in assay [8]; 0.0212 in [9]; -0.0045 in assay [10]; -0.0365 in assay [11]; 0.0022 in assay [12]. Also, the Bliss excess is -0.0084 in assay [13]; 0.0011 in assay [14]; -0.0592 in assay [15]; -0.0593 in assay [16]; -0.0039 in assay [17]; -0.0306 in [18]. Moreover, the Bliss excess was -0.042 in assay [19] and -0.019 in assay [20].

Consider `Cc1c2c(nn1C)CSCc1cc(n(C)n1)CSc1cc(c3ccccc3c1)OCCCc1c(C(=O)O)n(C)c3c-2c(Cl)ccc13` [AZD5991] + C1CN(CCC1(C(=O)N[C@@H](CCO)C2=CC=C(C=C2)Cl)N)C3=NC=NC4=C3C=CN4 [Capivasertib] (first compound max 1 µM, 7x7, partner max 3 µM), for which the Bliss excess in assay [1] is -0.0015; in assay [2], 0.007; in [3], -0.0434; in assay [4], 0.0516; in assay [5], 0.0051; in assay [6], -0.0384. For the same compound, the Bliss excess was -0.0046 in assay [7]; -0.029 in [8]; -0.0016 in [9]; -0.0173 in assay [10]; -0.0076 in assay [11]; -0.0042 in assay [12]. Also, the Bliss excess in assay [13] is -0.024; in [14], 0.0467; in assay [15], 0.0204; in assay [16], -0.0406; in assay [17], -0.0074; in assay [18], -0.0123. The Bliss excess in assay [19] was 0.0415; in assay [20] it was -0.028.

Take `Cc1c2c(nn1C)CSCc1cc(n(C)n1)CSc1cc(c3ccccc3c1)OCCCc1c(C(=O)O)n(C)c3c-2c(Cl)ccc13` [AZD5991] + C=CCn1c(=O)c2cnc(Nc3ccc(N4CCN(C)CC4)cc3)nc2n1-c1cccc(C(C)(C)O)n1 [AZD1775] (first compound max 1 µM, partner max 1 µM): the Bliss excess in assay [1] is -0.0139; in assay [2], 0.0621; in [3] it was 0.0142; in [4] it was -0.0643; in [5], -0.002; in assay [6], 0.0026. In addition, the Bliss excess was 0.0127 in [7]; -0.0308 in assay [8]; 0.0071 in assay [9]; -0.0756 in [10]; 0.0071 in assay [11]; -0.0082 in assay [12]. Further, the Bliss excess in assay [13] is -0.0269; in assay [14] it was 0.0305; in assay [15], -0.048; in assay [16] it was 0.0177; in [17], -0.0549; in assay [18], -0.04. Besides, the figures for the Bliss excess in [19] and in assay [20] were -0.0201 and -0.0379, respectively.

In the case of `Cc1c2c(nn1C)CSCc1cc(n(C)n1)CSc1cc(c3ccccc3c1)OCCCc1c(C(=O)O)n(C)c3c-2c(Cl)ccc13` [AZD5991] + CC1(C)CCC(CN2CCN(c3ccc(C(=O)NS(=O)(=O)c4ccc(NCC5CCOCC5)c([N+](=O)[O-])c4)c(Oc4cnc5[nH]ccc5c4)c3)CC2)=C(c2ccc(Cl)cc2)C1 [Venetoclax] (first compound max 1 µM, 7x7, partner max 1 µM), the Bliss excess in assay [1] is 0.0184; in assay [2] it was -0.0185; in assay [3], -0.0362; in assay [4] it was 0.0932; in assay [5], -0.0308; in assay [6], 0.0333. The Bliss excess in assay [7] is -0.0211; in assay [8] it was -0.0023; in assay [9], -0.0567; in assay [10], 0.0083; in [11], -0.0446; in assay [12], -0.0368. Further, the Bliss excess in assay [13] was -0.0031; in assay [14] it was 0.256; in assay [15], 0.117; in assay [16], -0.0608; in assay [17], -0.0312; in [18], 0.0228. Moreover, the Bliss excess in [19] is -0.0118; in assay [20], 0.0131.

Consider `Cc1c2c(nn1C)CSCc1cc(n(C)n1)CSc1cc(c3ccccc3c1)OCCCc1c(C(=O)O)n(C)c3c-2c(Cl)ccc13` [AZD5991] + CN(C)CCCOc1ccc(-c2ccc3ncc4c(c3c2)n(C2CCOCC2)c(=O)n4C)cn1 [AZD0156] (first compound max 1 µM, 7x7, partner max 1 µM), for which the Bliss excess was 0.0103 in [1]; 0.0146 in assay [2]; 0.0003 in assay [3]; 0.0135 in [4]; -0.0314 in assay [5]; 0.0049 in assay [6]. Also, the Bliss excess in assay [7] was -0.0236; in assay [8], -0.0098; in assay [9], -0.0298; in assay [10], -0.0104; in assay [11], -0.0412; in assay [12] it was -0.0889. Moreover, the Bliss excess in assay [13] is -0.0055; in assay [14], 0.0453; in [15], 0.0063; in assay [16], -0.0062; in assay [17], -0.0485; in assay [18], -0.0029. Moreover, the Bliss excess in assay [19] was -0.0354; in assay [20], 0.0231.

Turning to `Cc1c2c(nn1C)CSCc1cc(n(C)n1)CSc1cc(c3ccccc3c1)OCCCc1c(C(=O)O)n(C)c3c-2c(Cl)ccc13` [AZD5991] + C[C@@H]1COCCN1C2=NC(=NC(=C2)C3(CC3)[S@](=N)(=O)C)C4=C5C=CNC5=NC=C4 [AZD6738] (first compound max 1 µM, 7x7, partner max 10 µM), the Bliss excess was 0.047 in assay [1]; 0.0122 in assay [2]; 0.044 in assay [3]; -0.0064 in [4]; 0.0182 in assay [5]; 0.0316 in assay [6]. For the same compound, the Bliss excess in assay [7] was 0.0152; in assay [8], 0.0135; in [9], 0.0264; in assay [10], 0.0058; in assay [11], 0.0201; in assay [12], -0.0032. The Bliss excess in [13] was -0.0121; in [14], 0.105; in [15] it was 0.0651; in assay [16], 0.016; in assay [17] it was -0.0086; in assay [18], 0.0257. The Bliss excess was 0.0595 in [19] and 0.0329 in [20].

As to `Cc1c2c(nn1C)CSCc1cc(n(C)n1)CSc1cc(c3ccccc3c1)OCCCc1c(C(=O)O)n(C)c3c-2c(Cl)ccc13` [AZD5991] + C[C@@H](Nc1cc(F)cc(F)c1)c1cc(C(=O)N(C)C)cc2c(=O)cc(N3CCOCC3)oc12 [AZD8186] (first compound max 1 µM, 7x7, partner max 3 µM), the Bliss excess is 0.0352 in assay [1]; -0.0204 in assay [2]; 0.0026 in assay [3]; -0.0011 in assay [4]; -0.0528 in assay [5]; -0.0301 in [6]. In addition, the Bliss excess is -0.0239 in [7]; -0.0479 in assay [8]; -0.064 in assay [9]; -0.0451 in assay [10]; -0.0264 in [11]; 0.0004 in assay [12]. The Bliss excess was -0.0142 in assay [13]; 0.0182 in assay [14]; 0.0172 in assay [15]; -0.0522 in assay [16]; -0.0261 in [17]; 0.0078 in assay [18]. Also, the Bliss excess in assay [19] was 0.0196; in assay [20], -0.0244.
